One may read the DC50 as the concentration at which degradation of the target reaches its halfway point. The Dmax is the largest share of the target that was removed.

Read-outs that look alike come from different tables or passages of the source. A value given as a limit tells only on which side of the number the result lay.

The target of one experiment is SMARCA4 (Homo sapiens, UniProt P51532). In words: HiBiT assay for protein degradation, Hela SMARCA4-HiBiT cells (A series). The conditions noted are these: for DC50: read-out: SMARC A4 Hela HiBit DC50. The class given is cell-based. Further details: fuse HiBiT to the carboxy terminus of SMARCA2 (Promega CS302365) or SMARCA4 (Promega CS3023225); host or cells: HeLa (CRISPR/Cas9 HiBiT knock-in). The method, boiled down:
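HeLa cells engineered by CRISPR/Cas9 to carry a HiBiT tag fused to the C-terminus of SMARCA4 (Promega CS3023225) were grown in DMEM supplemented with FBS and penicillin-streptomycin. After compound exposure, remaining SMARCA4 protein was quantified using the Nano-Glo® HiBiT Lytic Detection Assay (Promega N3050), and curves were fitted in GraphPad Prism.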
(In general: With HiBiT, luminescence reflects the tagged protein that the partner subunit can reach.)

The next experiment addresses SMARCA2 (Homo sapiens, UniProt P51531). In words: HiBiT assay for protein degradation, Hela SMARCA2-HiBiT cells (A series).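 For SMARC A2 Hela HiBit Dmax (%): 24 h compound treatment.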 The conditions noted are these: for DC50: read-out: SMARC A2 Hela HiBit DC50; for Dmax: read-out: SMARC A2 Hela HiBit Dmax (%). The class given is cell-based. On the set-up: Hela cells were genetically modified via CRISPR/Cas9 to fuse HiBiT to the carboxy terminus of SMARCA2; host or cells: HeLa (CRISPR/Cas9 HiBiT knock-in). In short, it runs like this: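 HeLa cells engineered by CRISPR/Cas9 to carry a HiBiT tag fused to the C-terminus of SMARCA2 (Promega CS302365) were grown in DMEM supplemented with FBS and penicillin-streptomycin. After treatment, remaining SMARCA2 protein was quantified with the Nano-Glo® HiBiT Lytic Detection Assay (Promega N3050), and curves were fitted in GraphPad Prism.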

The mark [1] stands for this setting: Hela SMARCA4-HiBiT cells, 24 hours treatment.
Setting [2] is: Hela SMARCA4-HiBiT cells, 24 hours treatment, read-out: SMARC A4 Hela HiBit Dmax.
Setting [3] is: Hela SMARCA2-HiBiT cells, 24 hours treatment.
The mark [4] stands for this setting: Hela SMARCA4-HiBiT cells, 24 hours treatment, read-out: SMARC A4 Hela HiBit Dmax(%).

SMARCA2, sequence (P51531 whole entry, the tested form may be a part): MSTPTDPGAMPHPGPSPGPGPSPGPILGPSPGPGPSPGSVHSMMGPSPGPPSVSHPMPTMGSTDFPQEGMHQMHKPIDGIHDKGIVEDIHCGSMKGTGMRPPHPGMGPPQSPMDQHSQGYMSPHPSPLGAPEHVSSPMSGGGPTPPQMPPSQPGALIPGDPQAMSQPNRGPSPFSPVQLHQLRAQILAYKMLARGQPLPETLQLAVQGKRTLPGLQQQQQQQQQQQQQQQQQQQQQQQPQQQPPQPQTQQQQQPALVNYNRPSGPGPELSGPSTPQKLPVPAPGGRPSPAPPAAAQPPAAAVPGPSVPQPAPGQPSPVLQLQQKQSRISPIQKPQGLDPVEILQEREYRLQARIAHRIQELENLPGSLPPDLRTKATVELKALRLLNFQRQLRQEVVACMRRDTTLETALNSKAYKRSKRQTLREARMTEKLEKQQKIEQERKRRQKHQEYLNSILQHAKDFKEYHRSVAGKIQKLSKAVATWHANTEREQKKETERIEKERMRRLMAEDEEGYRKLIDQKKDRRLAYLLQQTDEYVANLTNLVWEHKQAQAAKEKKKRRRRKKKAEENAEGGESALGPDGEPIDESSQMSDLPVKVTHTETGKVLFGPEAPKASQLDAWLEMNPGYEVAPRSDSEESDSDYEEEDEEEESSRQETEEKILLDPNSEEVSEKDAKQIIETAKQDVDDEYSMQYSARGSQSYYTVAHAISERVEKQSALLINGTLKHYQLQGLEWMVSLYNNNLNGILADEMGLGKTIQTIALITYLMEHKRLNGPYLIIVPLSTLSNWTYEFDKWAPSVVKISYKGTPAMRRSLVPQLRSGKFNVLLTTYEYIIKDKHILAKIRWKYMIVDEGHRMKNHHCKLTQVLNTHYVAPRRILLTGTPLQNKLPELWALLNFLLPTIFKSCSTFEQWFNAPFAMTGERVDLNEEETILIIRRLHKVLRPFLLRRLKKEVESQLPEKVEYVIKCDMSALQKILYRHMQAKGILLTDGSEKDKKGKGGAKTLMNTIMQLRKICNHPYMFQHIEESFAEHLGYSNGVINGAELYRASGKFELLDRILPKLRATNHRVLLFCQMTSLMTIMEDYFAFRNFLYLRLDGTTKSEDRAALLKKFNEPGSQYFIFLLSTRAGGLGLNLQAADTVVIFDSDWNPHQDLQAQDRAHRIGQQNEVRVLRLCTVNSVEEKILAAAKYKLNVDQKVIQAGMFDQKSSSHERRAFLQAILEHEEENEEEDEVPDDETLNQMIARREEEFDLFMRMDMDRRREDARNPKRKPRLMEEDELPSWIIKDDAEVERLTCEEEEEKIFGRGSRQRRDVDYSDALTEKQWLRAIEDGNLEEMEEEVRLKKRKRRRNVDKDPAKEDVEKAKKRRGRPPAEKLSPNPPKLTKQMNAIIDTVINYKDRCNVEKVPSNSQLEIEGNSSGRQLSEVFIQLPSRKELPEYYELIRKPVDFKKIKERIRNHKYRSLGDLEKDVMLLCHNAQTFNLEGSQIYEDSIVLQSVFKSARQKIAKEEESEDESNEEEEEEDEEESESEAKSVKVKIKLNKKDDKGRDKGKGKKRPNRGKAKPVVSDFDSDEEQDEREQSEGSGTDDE
SMARCA4, sequence (P51532 whole entry, the tested form may be a part): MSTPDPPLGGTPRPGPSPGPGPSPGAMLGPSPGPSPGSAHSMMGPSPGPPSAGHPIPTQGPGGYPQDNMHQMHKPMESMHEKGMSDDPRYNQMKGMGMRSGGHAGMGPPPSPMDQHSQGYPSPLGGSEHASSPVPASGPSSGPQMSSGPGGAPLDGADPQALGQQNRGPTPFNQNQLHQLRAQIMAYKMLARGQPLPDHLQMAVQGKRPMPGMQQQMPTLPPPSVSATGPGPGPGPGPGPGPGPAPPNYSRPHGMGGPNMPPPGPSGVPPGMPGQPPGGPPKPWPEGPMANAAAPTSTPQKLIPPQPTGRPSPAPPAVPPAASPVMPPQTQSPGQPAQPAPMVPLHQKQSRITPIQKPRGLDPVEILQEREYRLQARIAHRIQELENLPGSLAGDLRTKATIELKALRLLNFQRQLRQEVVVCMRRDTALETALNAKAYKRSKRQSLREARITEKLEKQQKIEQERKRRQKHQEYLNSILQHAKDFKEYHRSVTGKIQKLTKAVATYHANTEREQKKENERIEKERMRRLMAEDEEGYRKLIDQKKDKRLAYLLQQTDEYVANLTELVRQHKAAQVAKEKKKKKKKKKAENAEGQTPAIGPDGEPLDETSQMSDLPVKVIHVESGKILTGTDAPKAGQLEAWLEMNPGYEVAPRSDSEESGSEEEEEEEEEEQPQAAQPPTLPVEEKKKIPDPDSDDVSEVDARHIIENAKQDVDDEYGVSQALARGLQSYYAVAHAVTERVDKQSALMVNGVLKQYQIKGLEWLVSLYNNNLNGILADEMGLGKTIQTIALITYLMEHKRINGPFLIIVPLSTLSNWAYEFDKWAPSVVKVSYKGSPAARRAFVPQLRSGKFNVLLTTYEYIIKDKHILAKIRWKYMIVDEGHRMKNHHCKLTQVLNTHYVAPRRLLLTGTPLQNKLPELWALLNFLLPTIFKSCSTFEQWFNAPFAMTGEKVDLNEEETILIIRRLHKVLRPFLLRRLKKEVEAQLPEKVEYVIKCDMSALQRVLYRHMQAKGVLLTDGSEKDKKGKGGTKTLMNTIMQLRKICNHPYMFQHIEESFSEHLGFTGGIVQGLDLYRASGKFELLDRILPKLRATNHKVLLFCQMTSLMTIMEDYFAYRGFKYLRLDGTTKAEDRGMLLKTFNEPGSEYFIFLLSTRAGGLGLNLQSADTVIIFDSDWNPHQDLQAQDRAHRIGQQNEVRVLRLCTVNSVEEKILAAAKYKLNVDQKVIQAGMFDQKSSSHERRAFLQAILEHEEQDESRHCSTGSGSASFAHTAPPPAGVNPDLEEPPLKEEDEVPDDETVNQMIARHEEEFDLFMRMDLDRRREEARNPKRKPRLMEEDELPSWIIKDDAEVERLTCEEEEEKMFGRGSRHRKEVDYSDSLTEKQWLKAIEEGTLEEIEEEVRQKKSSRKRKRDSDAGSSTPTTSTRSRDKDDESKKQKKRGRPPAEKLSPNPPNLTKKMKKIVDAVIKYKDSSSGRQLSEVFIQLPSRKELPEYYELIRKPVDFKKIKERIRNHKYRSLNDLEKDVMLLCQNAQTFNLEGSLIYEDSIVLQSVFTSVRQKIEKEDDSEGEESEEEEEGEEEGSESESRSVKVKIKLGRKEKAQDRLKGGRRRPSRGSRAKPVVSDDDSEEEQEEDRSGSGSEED

Turning to `COCCOCCOCCOC[C@H](NC(=O)[C@@H]1C[C@@H](O)CN1C(=O)[C@@H](n1cc([C@H]2CC[C@H](CN3CCC(c4ccc5c(c4)-n4c(nc(=O)c6c(Cl)cccc64)C5(C)C)CC3)CC2)nn1)C(C)(C)C)c1ccc(-c2scnc2C)cc1` [Compound A150, (2S,4R)-1-((S)-2-(4-((1r,4S)-4-((4-(4-chloro-7,7-dimethyl-5-oxo-5,7-dihydroindolo[1,2-a]quinazolin-10-yl)piperidin-1-yl)methyl)cyclohexyl)-1H-1,2,3-triazol-1-yl)-3,3-dimethylbutanoyl)-4-hydroxy-N—((R)-13-(4-(4-methylthiazol-5-yl)phenyl)-2,5,8,11-tetraoxatridecan-13-yl)pyrrolidine-2-carboxamide], the results for the DC50 at SMARCA4 (setting [1]) and at SMARCA2 (setting [3]) were more than 1 µM and less than 0.01 µM, respectively. Also, the Dmax on SMARCA4 (setting [2]) is less than 50%; at SMARCA2 (setting [3]), more than 90%.

With `Cc1ncsc1-c1ccc([C@H](CN2CCOCC2)NC(=O)[C@@H]2C[C@@H](O)CN2C(=O)[C@@H](n2cc([C@H]3CC[C@H](CN4CCC(c5ncc6c(n5)-n5c(nc(=O)c7c(Br)cccc75)C65CCCCC5)CC4)CC3)nn2)C(C)(C)C)cc1` [Compound A32, (2S,4R)-1-((S)-2-(4-((1r,4S)-4-((4-(4′-bromo-5′-oxo-5′H-spiro[cyclohexane-1,7′-pyrimido[5′,4′: 4,5]pyrrolo[1,2-a]quinazolin]-10′-yl)piperidin-1-yl)methyl)cyclohexyl)-1H-1,2,3-triazol-1-yl)-3,3-dimethylbutanoyl)-4-hydroxy-N—((R)-1-(4-(4-methylthiazol-5-yl)phenyl)-2-morpholinoethyl)pyrrolidine-2-carboxamide], the DC50 on SMARCA4 (setting [1]) and at SMARCA2 (setting [3]) was more than 1 µM in each case. The Dmax on SMARCA4 (setting [4]) is 70 to 90%; at SMARCA2 (setting [3]), less than 50%.

For `Cc1ncsc1-c1ccc([C@H](C)NC(=O)[C@@H]2C[C@@H](O)CN2C(=O)[C@@H](n2cc([C@H]3C[C@H](CN4CCC(c5ccc6c(c5)-n5c(nc(=O)c7c(Br)cccc75)C65CCCCC5)CC4)C3)nn2)C(C)(C)C)cc1` [Compound A63, (2S,4R)-1-((S)-2-(4-((1r,3S)-3-((4-(4′-bromo-5′-oxo-5′H-spiro[cyclohexane-1,7′-indolo[1,2-a]quinazolin]-10′-yl)piperidin-1-yl)methyl)cyclobutyl)-1H-1,2,3-triazol-1-yl)-3,3-dimethylbutanoyl)-4-hydroxy-N—((S)-1-(4-(4-methylthiazol-5-yl)phenyl)ethyl)pyrrolidine-2-carboxamide], the “SMARC A4 Hela HiBit Dmax(%)” value on SMARCA4 (setting [1]) is “B (B (70-90% degradation))”. The DC50 at SMARCA4 and on SMARCA2 was less than 0.1 µM in each case. Moreover, the “SMARC A2 Hela HiBit Dmax (%)” value at SMARCA2 (setting [3]) was “A (A (>90% degradation))”.

As to `Cc1ncsc1-c1ccc([C@H](CN2CC(C(=O)O)C2)NC(=O)[C@@H]2C[C@@H](O)CN2C(=O)[C@@H](n2cc([C@H]3CC[C@H](CN4CCC(c5ccc6c(c5)-n5c(nc(=O)c7c(Cl)cccc75)C65CCCCC5)CC4)CC3)nn2)C(C)(C)C)cc1` [Compound A157, 1-((R)-2-((2S,4R)-1-((S)-2-(4-((1r,4S)-4-((4-(4′-chloro-5′-oxo-5′H-spiro[cyclohexane-1,7′-indolo[1,2-a]quinazolin]-10′-yl)piperidin-1-yl)methyl)cyclohexyl)-1H-1,2,3-triazol-1-yl)-3,3-dimethylbutanoyl)-4-hydroxypyrrolidine-2-carboxamido)-2-(4-(4-methylthiazol-5-yl)phenyl)ethyl) azetidine-3-carboxylic acid], the DC50 was more than 1 µM on SMARCA4 (setting [1]) and 0.1 to 1 µM on SMARCA2 (setting [3]). The Dmax at SMARCA4 (setting [2]) is less than 50%; on SMARCA2 (setting [3]) it was 70 to 90%.

Take `CC(C)(C)[C@H](NC(=O)C1(F)CC1)C(=O)N1C[C@H](O)C[C@H]1C(=O)N[C@@H](CCCCCN1CCC(c2ccc3c(c2)C2(CCCCC2)c2nc(=O)c4c(Br)cccc4n2-3)CC1)c1ccc(Cl)cc1` [Compound A25, (2S,4R)—N—((S)-6-(4-(4′-bromo-5′-oxo-5′H-spiro[cyclohexane-1,7-indolo[1,2-a]quinazolin]-9′-yl)piperidin-1-yl)-1-(4-chlorophenyl)hexyl)-1-((S)-2-(1-fluorocyclopropane-1-carboxamido)-3,3-dimethylbutanoyl)-4-hydroxypyrrolidine-2-carboxamide]: the DC50 at SMARCA4 (setting [1]) and at SMARCA2 (setting [3]) was more than 1 µM each time. The Dmax at SMARCA4 (setting [4]) and at SMARCA2 (setting [3]) was less than 50% throughout.

Turning to `CC1(C)c2ccc(C3CCN(C[C@H]4CC[C@H](c5cn([C@H](C(=O)N6C[C@H](O)C[C@H]6C(=O)N[C@@H](CN6CCOCC6)c6ccc(-c7scnc7C(=O)O)cc6)C6CCOCC6)nn5)CC4)CC3)cc2-n2c1nc(=O)c1c(Cl)cccc12` [Compound A133, 5-(4-((R)-1-((2S,4R)-1-((S)-2-(4-((1r,4S)-4-((4-(4-chloro-7,7-dimethyl-5-oxo-5,7-dihydroindolo[1,2-a]quinazolin-10-yl)piperidin-1-yl)methyl)cyclohexyl)-1H-1,2,3-triazol-1-yl)-2-(tetrahydro-2H-pyran-4-yl)acetyl)-4-hydroxypyrrolidine-2-carboxamido)-2-morpholinoethyl)phenyl)thiazole-4-carboxylic acid], the DC50 at SMARCA4 (setting [1]) was more than 1 µM; at SMARCA2 (setting [3]), 0.1 to 1 µM. The Dmax at SMARCA4 (setting [2]) is less than 50%; at SMARCA2 (setting [3]) it was 70 to 90%.

With `Cc1ncsc1-c1ccc([C@@H](NC(=O)[C@@H]2C[C@@H](O)CN2C(=O)[C@@H](n2cc(C3CC3)nn2)C(C)(C)C)C(=O)N2CCC(c3ccc4c(c3)-n3c(nc(=O)c5c(Br)cccc53)C43CCCCC3)CC2)cc1` [Compound A135, (2S,4R)—N—((R)-2-(4-(4′-bromo-5′-oxo-5′H-spiro[cyclohexane-1,7′-indolo[1,2-a]quinazolin]-10′-yl)piperidin-1-yl)-1-(4-(4-methylthiazol-5-yl)phenyl)-2-oxoethyl)-1-((S)-2-(4-cyclopropyl-1H-1,2,3-triazol-1-yl)-3,3-dimethylbutanoyl)-4-hydroxypyrrolidine-2-carboxamide], the DC50 at SMARCA4 (setting [1]) and on SMARCA2 (setting [3]) was less than 0.01 µM in each case. Moreover, the Dmax on SMARCA4 (setting [2]) and on SMARCA2 (setting [3]) was more than 90% throughout.

Take `COC(=O)COC[C@H](NC(=O)[C@@H]1C[C@@H](O)CN1C(=O)[C@@H](n1cc([C@H]2CC[C@H](CN3CCC(c4ccc5c(c4)-n4c(nc(=O)c6c(Cl)cccc64)C54CCCCC4)CC3)CC2)nn1)C(C)(C)C)c1ccc(-c2scnc2C)cc1` [Compound A152, methyl 2-((R)-2-((2S,4R)-1-((S)-2-(4-((1r,4S)-4-((4-(4′-chloro-5′-oxo-5′H-spiro[cyclohexane-1,7′-indolo[1,2-a]quinazolin]-10′-yl)piperidin-1-yl)methyl)cyclohexyl)-1H-1,2,3-triazol-1-yl)-3,3-dimethylbutanoyl)-4-hydroxypyrrolidine-2-carboxamido)-2-(4-(4-methylthiazol-5-yl)phenyl)ethoxy)acetate]: the figures for the DC50 at SMARCA4 (setting [1]) and on SMARCA2 (setting [3]) were more than 1 µM and less than 0.01 µM, respectively. The Dmax on SMARCA4 (setting [2]) is 50 to 69%; on SMARCA2 (setting [3]), more than 90%.

(Values after patent publication US20260092071A1, “COMPOUNDS AND COMPOSITIONS AS SMARCA2/4 DEGRADERS AND USES THEREOF” (REGENTS OF THE UNIVERSITY OF MICHIGAN, priority 2022, published 2026).)
